Laboratory results from patent US6630594B2, “Methods of making substituted phenylketoenols” (Bayer Aktiengesellschaft, priority 1996, dated 2003).

Assays:
Assay type in all cases: in vivo
[1] = system: larvae of the mustard beetle (Phaedon cochleariae); assay: Phaedon larvae Test (cabbage leaf dip); conditions: concentration of active compound 0.1%, after 7 days, cabbage leaves dipped
Protocol: Phaedon larvae Test [table] To produce a suitable preparation of active compound, 1 part by weight of active compound is mixed with the stated amount of solvent and the stated amount of emulsifier, and the concentrate is diluted with water to the desired concentration. Cabbage leaves (Brassica oleracea) are treated by being dipped into the preparation of active compound of the desired concentration and are populated with larvae of the mustard beetle (Phaedon cochleariae) while the leaves are still moist.

[2] = system: green rice leaf hoppers (Nephotettix cincticeps); assay: Nephotettix-Test (rice seedling dip); conditions: concentration of active compound 0.1%, after 6 days, rice seedlings dipped
Protocol: (§1) To produce a suitable preparation of active compound, 1 part by weight of active compound is mixed with the stated amount of solvent and the stated amount of emulsifier, and the concentrate is diluted with water to the desired concentration.
Rice seedlings (Oryzae sativa) are treated by being dipped into the preparation of active compound of the desired concentration and are populated with the green rice leaf hoppers (Nephotettix cincticeps) while the seedlings are still moist.
After the desired period of time, the kill in % is determined. 100% means that all leaf hoppers have been killed; 0% means that none of the leaf hoppers have been killed.

[3] = system: greenhouse red spider mite Tetranychus urticae; assay: Tetranychus Test (OP-resistent/dip Treatment); conditions: concentration of active compound 0.1%, after 13 days, infested bean plants dipped, all stages
Protocol: Tetranychus Test (OP-resistent/dip Treatment)
as §1
Bean plants (Phaseolus vulgaris) which are heavily infested by all stages of the greenhouse red spider mite Tetranychus urticae are dipped into a perparation of active compound of the desired concentration.
After the desired period of time, the kill in % is determined. 100% means that all spider mites haven been killed: 0% means that none of the spider mites have been killed.

[4] = system: caterpillars of the owlet moth Spodoptera frugiperda; assay: Spodoptera frugiperda Test (cabbage leaf dip); conditions: concentration of active compound 0.1%, after 7 days, cabbage leaves dipped
Protocol: Spodoptera frugiperda Test
as §1
Cabbage leaves (Brassica oleracea) are treated by being dipped into the preparation of active compound of the desired concentration and are populated with caterpillars of the owlet moth Spodoptera frugiperda) while the leaves are still moist.
After the desired period of time, the kill in % is determined. 100% means that all caterpillars have been killed; 0% means that none of the caterpillars haven been killed.

[5] = system: peach aphids (Myzus persicae); assay: Myzus-Test (cabbage leaf dip); conditions: concentration of active compound 0.1%, after 6 days, infested cabbage leaves dipped
Protocol: To produce a suitable preparation of active compound, 1 part by weight of active compound is mixed with the state amount of solvent and the stated amount of emulsifier, and the concentrate is diluted with water to the desired concentration.
Cabbage leaves (Brassica oleracea) which are heavily infested by peach aphids (Myzus persicae) are treated by being dipped into the preparation of active compound of the desired concentration.
After the desired period of time, the kill in % is determined. 100% means that all aphids have been killed; 0% means that none of the aphids have been killed.

Measured: kill in %

Cc1cc(C)c(C2=C(OC(=O)C(C)(C)C)C3(CCCOC3)NC2=O)c(C)c1 (stereo not drawn) [Example I-1-b-1]
100%: [1] | [2] | [3]

Cc1cc(C)c(C2=C(O)C3(CCCOC3)NC2=O)c(C)c1 (stereo not drawn) [Example I-1-a-1]
100%: [1] | [2] | [3]

CCOC(=O)OC1=C(c2c(C)cc(C)cc2C)C(=O)NC12CCCOC2 (stereo not drawn) [Example I-1-c-1]
100%: [4] | [5] | [3]
